Reference: PubChem BioAssay AID1259407 (Chemical Carcinogenesis Research Information System (CCRIS), 2018)
Activity calls are given as the source filed them. The rule behind the calls is not given here.

Test system: CCRIS mutagenicity, Ames/micronucleus/aberration tests
Assay: CCRIS mutagenicity studies
[1] = Test System: AMES SALMONELLA TYPHIMURIUM, Strain/Indicator: TA98, Metabolic Activation: NONE, Method: PREINCUBATION
[2] = Test System: AMES SALMONELLA TYPHIMURIUM, Strain/Indicator: TA100, Metabolic Activation: HAMSTER, LIVER, S-9, AROCLOR 1254 (10%), Method: PREINCUBATION
[3] = Test System: AMES SALMONELLA TYPHIMURIUM, Strain/Indicator: TA100, Metabolic Activation: NONE, Method: PREINCUBATION

Q: `N#CCC#N` was tested. Which mutagenic call (Test System: AMES SALMONELLA TYPHIMURIUM, Strain/Indicator: TA97, Metabolic Activation: HAMSTER, LIVER, S-9, AROCLOR 1254 (10%), Method: PREINCUBATION) did it give?
A: inactive; negative

Q: And the mutagenic call (Test System: AMES SALMONELLA TYPHIMURIUM, Strain/Indicator: TA97, Metabolic Activation: HAMSTER, LIVER, S-9, AROCLOR 1254 (30%), Method: PREINCUBATION)?
A: inactive; negative

Q: And the mutagenic call (Test System: AMES SALMONELLA TYPHIMURIUM, Strain/Indicator: TA97, Metabolic Activation: NONE, Method: PREINCUBATION)?
A: inactive; negative

Q: And the mutagenic call (Test System: AMES SALMONELLA TYPHIMURIUM, Strain/Indicator: TA97, Metabolic Activation: RAT, LIVER, S-9, AROCLOR 1254 (10%), Method: PREINCUBATION)?
A: inactive; negative

Q: And the mutagenic call (Test System: AMES SALMONELLA TYPHIMURIUM, Strain/Indicator: TA97, Metabolic Activation: RAT, LIVER, S-9, AROCLOR 1254 (30%), Method: PREINCUBATION)?
A: inactive; negative

Q: And the mutagenic call (Test System: AMES SALMONELLA TYPHIMURIUM, Strain/Indicator: TA98, Metabolic Activation: HAMSTER, LIVER, S-9, AROCLOR 1254 (10%), Method: PREINCUBATION)?
A: inactive; negative

Q: And the mutagenic call (Test System: AMES SALMONELLA TYPHIMURIUM, Strain/Indicator: TA98, Metabolic Activation: HAMSTER, LIVER, S-9, AROCLOR 1254 (30%), Method: PREINCUBATION)?
A: inactive; negative

Q: What about the mutagenic call [1] of the same molecule?
A: inactive; negative

Q: And the mutagenic call (Test System: AMES SALMONELLA TYPHIMURIUM, Strain/Indicator: TA98, Metabolic Activation: RAT, LIVER, S-9, AROCLOR 1254 (10%), Method: PREINCUBATION)?
A: inactive; negative

Q: And the mutagenic call (Test System: AMES SALMONELLA TYPHIMURIUM, Strain/Indicator: TA98, Metabolic Activation: RAT, LIVER, S-9, AROCLOR 1254 (30%), Method: PREINCUBATION)?
A: inactive; negative

Q: What about the mutagenic call [2] of the same molecule?
A: inactive; negative

Q: And the mutagenic call (Test System: AMES SALMONELLA TYPHIMURIUM, Strain/Indicator: TA100, Metabolic Activation: HAMSTER, LIVER, S-9, AROCLOR 1254 (30%), Method: PREINCUBATION)?
A: inactive; negative

Q: What about the mutagenic call [3] of the same molecule?
A: inactive; negative

Q: And the mutagenic call (Test System: AMES SALMONELLA TYPHIMURIUM, Strain/Indicator: TA100, Metabolic Activation: RAT, LIVER, S-9, AROCLOR 1254 (10 OR 30%), Method: PREINCUBATION)?
A: inactive; negative

Q: And the mutagenic call (Test System: AMES SALMONELLA TYPHIMURIUM, Strain/Indicator: TA1535, Metabolic Activation: HAMSTER, LIVER, S-9, AROCLOR 1254 (10%), Method: PREINCUBATION)?
A: inactive; negative

Q: What about the mutagenic call (Test System: AMES SALMONELLA TYPHIMURIUM, Strain/Indicator: TA1535, Metabolic Activation: HAMSTER, LIVER, S-9, AROCLOR 1254 (30%), Method: PREINCUBATION) of the same molecule?
A: inactive; negative

Q: What about the mutagenic call (Test System: AMES SALMONELLA TYPHIMURIUM, Strain/Indicator: TA1535, Metabolic Activation: NONE, Method: PREINCUBATION) of the same molecule?
A: inactive; negative

Q: What about the mutagenic call (Test System: AMES SALMONELLA TYPHIMURIUM, Strain/Indicator: TA1535, Metabolic Activation: RAT, LIVER, S-9, AROCLOR 1254 (10 OR 30%), Method: PREINCUBATION) of the same molecule?
A: inactive; negative

Q: Which results are given for `CC(=O)Nc1ccc(Cc2ccc(NC(C)=O)c(Cl)c2)cc1Cl`?
A: mutagenic call [3]: inactive; negative; mutagenic call (Test System: AMES SALMONELLA TYPHIMURIUM, Strain/Indicator: TA100, Metabolic Activation: RAT, LIVER, S-9, AROCLOR 1254 (50 µL), Method: PREINCUBATION): inactive; negative; mutagenic call (Test System: AMES SALMONELLA TYPHIMURIUM, Strain/Indicator: TA100, Metabolic Activation: RAT, LIVER, S-9, AROCLOR 1254 (100 OR 200 µL), Method: PREINCUBATION): active; positive

Q: With `c1ccc2c(c1)COC2` as the molecule, how does the mutagenic call [1] read?
A: active; positive

Q: With `Nc1c[n+](N2CCOCC2)no1` as the molecule, how does the mutagenic call (Test System: E. COLI, Strain/Indicator: WP2 UVRA (PKM101), Metabolic Activation: NONE, Method: STANDARD PLATE) read?
A: inactive; negative

Q: And the mutagenic call (Test System: E. COLI, Strain/Indicator: WP2 UVRA/OXYR (PKM101), Metabolic Activation: NONE, Method: STANDARD PLATE)?
A: active; positive

Q: For `COS(=O)(=O)C(F)(F)F`, which mutagenic call [2] is on record?
A: active; positive

Q: What about the mutagenic call (Test System: MOUSE LYMPHOMA, Strain/Indicator: L5178Y (TK+/TK-), Metabolic Activation: NONE, Method: SUSPENSION/PLATE) of the same molecule?
A: active; positive. reevaluation of results: positive

Q: And the mutagenic call (Test System: MOUSE LYMPHOMA, Strain/Indicator: L5178Y (TK+/TK-), Metabolic Activation: RAT, LIVER, S-9, AROCLOR 1254, Method: SUSPENSION/PLATE)?
A: active; positive. reevaluation of results: positive

Q: For `CCCC(=O)Nc1snc2cc(Cl)ccc12`, which mutagenic call (Test System: AMES SALMONELLA TYPHIMURIUM, Strain/Indicator: TA100, Metabolic Activation: NONE, Method: STANDARD PLATE) is on record?
A: inactive; negative

Q: What about the mutagenic call (Test System: AMES SALMONELLA TYPHIMURIUM, Strain/Indicator: TA100, Metabolic Activation: S-9, Method: STANDARD PLATE) of the same molecule?
A: inactive; negative

Q: And the mutagenic call (Test System: AMES SALMONELLA TYPHIMURIUM, Strain/Indicator: TA1537, Metabolic Activation: NONE, Method: STANDARD PLATE)?
A: inactive; negative

Q: What about the mutagenic call (Test System: AMES SALMONELLA TYPHIMURIUM, Strain/Indicator: TA1537, Metabolic Activation: S-9, Method: STANDARD PLATE) of the same molecule?
A: inactive; negative
